Laboratory results: PubChem BioAssay AID1259411 (Chemical Carcinogenesis Research Information System (CCRIS), 2018)
Active and inactive are the calls of the source. The rule behind the calls is not given here.

Tested on: rodent carcinogenicity bioassays, tumor incidence
Assay: CCRIS carcinogenicity studies
Method in brief: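 NCI-built, expert-reviewed records of carcinogenicity and related test outcomes (mutagenicity, tumor promotion/inhibition) compiled from published and report sources, historical span 1985-2011, not updated.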

Structure (SMILES): Cc1cc(-c2ccccc2C)ccc1N
- carcinogen call (Species: HAMSTER, Strain/Sex: SYRIAN/FEMALE, Route: SUBCUTANEOUS, Dose: 0, 100 MG/KG BW 1/WK FOR 20 WK (STUDY DURATION: 50 WK), Tumor Site: Type of Lesion: URINARY BLADDER: CARCINOMA): active; positive
- carcinogen call (Species: HAMSTER, Strain/Sex: SYRIAN/FEMALE, Route: SUBCUTANEOUS, Dose: 0.15 MMOL/KG IN PEANUT OIL 1/WK FOR 37 WK (TOTAL DOSE: 5.6 MMOL/KG), Tumor Site: Type of Lesion: URINARY BLADDER: TRANSITIONAL CELL CARCINOMA, SQUAMOUS CELL CARCINOMA): active; positive
- carcinogen call (Species: HAMSTER, Strain/Sex: SYRIAN/MALE,FEMALE, Route: SUBCUTANEOUS, Dose: 100 MG/KG 1/WK FOR 52 WK, Tumor Site: Type of Lesion: URINARY BLADDER: PAPILLOMA, CARCINOMA): active; positive
- carcinogen call (Species: HAMSTER, Strain/Sex: SYRIAN/MALE, Route: SUBCUTANEOUS, Dose: 0, 100 MG/KG BW 1/WK FOR 20 WK (STUDY DURATION: 50 WK), Tumor Site: Type of Lesion: URINARY BLADDER: CARCINOMA): active; positive
- carcinogen call (Species: HAMSTER, Strain/Sex: SYRIAN/MALE, Route: SUBCUTANEOUS, Dose: 0, 100 MG/KG IN PEANUT OIL 1/WK FOR 8 WK, THEN ONCE EVERY 2 WK FOR 18 MO (TOTAL MAXIMUM DOSE: 555 MG), Tumor Site: Type of Lesion: URINARY BLADDER: TRANSITIONAL CELL CARCINOMA, FORESTOMACH: SQUAMOUS CELL PAPILLOMA, INTESTINES (SMALL): ADENOCARCINOMA;, Tumor Site: Type of Lesion: URINARY BLADDER: TRANSITIONAL CELL CARCINOMA, FORESTOMACH: SQUAMOUS CELL PAPILLOMA, INTESTINES (SMALL): ADENOCARCINOMA): active; positive
- carcinogen call (Species: HAMSTER, Strain/Sex: SYRIAN/MALE, Route: SUBCUTANEOUS, Dose: 0.15 MMOL/KG IN PEANUT OIL 1/WK FOR 37 WK (TOTAL DOSE: 5.6 MMOL/KG), Tumor Site: Type of Lesion: URINARY BLADDER: TRANSITIONAL CELL CARCINOMA): active; positive
- carcinogen call (Species: RAT, Strain/Sex: ALBINO/MALE, Route: SUBCUTANEOUS, Dose: 2.8-3.5 G/KG, Tumor Site: Type of Lesion: INTESTINES, SALIVARY GLAND, EAR (DUCT), Tumor Site: Type of Lesion: INTESTINES, SALIVARY GLAND, EAR (DUCT)): active; positive
- carcinogen call (Species: RAT, Strain/Sex: F344/MALE, Route: SUBCUTANEOUS, Dose: 0, 150 MG/KG 1/WK FOR 3 WK FOLLOWED BY HIGH FAT DIET (20% CORN OIL) BEGINNING 12 WK POST LAST CARCINOGEN DOSE AND CONTIN, Tumor Site: Type of Lesion: PANCREAS: ADENOMA OR CARCINOMA): active; positive
- carcinogen call (Species: RAT, Strain/Sex: F344/MALE, Route: SUBCUTANEOUS, Dose: 0, 150 MG/KG 1/WK FOR 3 WK FOLLOWED BY NORMAL FAT DIET (4.5% CORN OIL) BEGINNING 12 WK POST LAST CARCINOGEN DOSE AND CON, Tumor Site: Type of Lesion: PANCREAS: ADENOMA OR CARCINOMA): active; positive
- carcinogen call (Species: RAT, Strain/Sex: F344/MALE, Route: SUBCUTANEOUS, Dose: 20 MG/KG 1/WK FOR 42 WK OR 50 MG/KG 1/WK FOR 20 WK, Tumor Site: Type of Lesion: PROSTATE GLAND: CARCINOMA (IN SITU)): active; positive
- carcinogen call (Species: RAT, Strain/Sex: WISTAR/FEMALE, Route: SUBCUTANEOUS, Dose: 2 MG/100 G 5/WK FOR 12 WK, Tumor Site: Type of Lesion: MAMMARY GLAND: CARCINOMA): active; positive
- carcinogen call (Species: RAT, Strain/Sex: WISTAR/MALE,FEMALE, Route: SUBCUTANEOUS, Dose: 2 MG/100 G 5/WK FOR LIFE, Tumor Site: Type of Lesion: INTESTINES (LARGE): POLYPLOID TUMOR (MULTIPLE)): active; positive

Structure (SMILES): O=[N+]([O-])c1ccc(OC2CO2)cc1 (configuration not stated)
- carcinogen call (Species: MOUSE, Strain/Sex: B6C3F1/MALE, Route: INTRAPERITONEAL, Dose: 0, 60 NMOL/G BW IN 10 µL TRIOCTANOIN ONCE (STUDY DURATION: 10 MO), Tumor Site: Type of Lesion: LIVER: HEPATOMA): active; positive

Structure (SMILES): Nc1cc([N+](=O)[O-])ccc1O
- carcinogen call (Species: MOUSE, Strain/Sex: B6C3F1/FEMALE, Route: GAVAGE, Dose: 0, 125, 250 MG/KG IN CORN OIL 5D/WK FOR 103 WK (STUDY DURATION: 105 WK), Dose: 0, 125, 250 MG/KG IN CORN OIL 5D/WK FOR 103 WK (STUDY DURATION: 105 WK)): inactive; negative
- carcinogen call (Species: MOUSE, Strain/Sex: B6C3F1/MALE, Route: GAVAGE, Dose: 0, 125, 250 MG/KG IN CORN OIL 5D/WK FOR 103 WK (STUDY DURATION: 105 WK), Dose: 0, 125, 250 MG/KG IN CORN OIL 5D/WK FOR 103 WK (STUDY DURATION: 105 WK)): inactive; negative
- carcinogen call (Species: RAT, Strain/Sex: F344/FEMALE, Route: GAVAGE, Dose: 0, 125, 250 MG/KG IN CORN OIL 5D/WK FOR 103 WK (STUDY DURATION: 105 WK), Dose: 0, 125, 250 MG/KG IN CORN OIL 5D/WK FOR 103 WK (STUDY DURATION: 105 WK)): inactive; negative
- carcinogen call (Species: RAT, Strain/Sex: F344/MALE, Route: GAVAGE, Dose: 0, 125, 250 MG/KG IN CORN OIL 5D/WK FOR 103 WK (STUDY DURATION: 105 WK), Dose: 0, 125, 250 MG/KG IN CORN OIL 5D/WK FOR 103 WK (STUDY DURATION: 105 WK), Tumor Site: Type of Lesion: PREPUTIAL GLAND: ADENOMA OR CARCINOMA): active; positive

Structure (SMILES): CC(=O)C(N=Nc1ccc(-c2ccc(N=NC(C(C)=O)C(=O)Nc3ccccc3)c(Cl)c2)cc1Cl)C(=O)Nc1ccccc1 (configuration not stated)
- carcinogen call (Species: MOUSE, Strain/Sex: B6C3F1/FEMALE, Route: ORAL, Dose: 0, 2.5, 5% OF DIET, Dose: 0, 2.5, 5% OF DIET): inactive; negative
- carcinogen call (Species: MOUSE, Strain/Sex: B6C3F1/MALE, Route: ORAL, Dose: 0, 2.5, 5% OF DIET, Dose: 0, 2.5, 5% OF DIET): inactive; negative
- carcinogen call (Species: RAT, Strain/Sex: F344/FEMALE, Route: ORAL, Dose: 0, 2.5, 5% OF DIET, Dose: 0, 2.5, 5% OF DIET): inactive; negative
- carcinogen call (Species: RAT, Strain/Sex: F344/MALE, Route: ORAL, Dose: 0, 2.5, 5% OF DIET, Dose: 0, 2.5, 5% OF DIET): inactive; negative

Structure (SMILES): C=CC(O)c1ccc2c(c1)OCO2 (configuration not stated)
- carcinogen call (Species: MOUSE, Strain/Sex: CD-1/FEMALE, Route: ORAL, Dose: 0.083% IN DIET FROM D 1 TO 10, 0.17% FROM D 11 TO 20, 0.55% THEREAFTER TO 12 MO, Tumor Site: Type of Lesion: LIVER: HEPATOCELLULAR CARCINOMA): active; positive
- carcinogen call (Species: MOUSE, Strain/Sex: CD-1/MALE, Route: SUBCUTANEOUS, Dose: TOTAL DOSE: 3.18 UMOL IN TRIOCTANOIN OVER 22 D, Tumor Site: Type of Lesion: LIVER: HEPATOCELLULAR CARCINOMA): active; positive
- carcinogen call (Species: RAT, Strain/Sex: STRAIN-CD/MALE, Route: ORAL, Dose: 0.25% IN DIET FOR 17 MO, 0.55% IN DIET FOR 10 MO, Tumor Site: Type of Lesion: LIVER: HEPATOCELLULAR CARCINOMA): active; positive

Structure (SMILES): Nc1ccc(O)c(N)c1
- carcinogen call (Species: MOUSE, Strain/Sex: B6C3F1/FEMALE, Route: GAVAGE, Dose: 0, 19, 38 MG/KG IN CORN OIL 5 D/WK FOR 104 WK (STUDY DURATION: 2 YR), Dose: 0, 19, 38 MG/KG IN CORN OIL 5 D/WK FOR 104 WK (STUDY DURATION: 2 YR)): inactive; negative
- carcinogen call (Species: RAT, Strain/Sex: F344/FEMALE, Route: GAVAGE, Dose: 0, 12.5, 25 MG/KG IN CORN OIL 5 D/WK FOR 104 WK (STUDY DURATION: 2 YR), Dose: 0, 12.5, 25 MG/KG IN CORN OIL 5 D/WK FOR 104 WK (STUDY DURATION: 2 YR)): inactive; negative
- carcinogen call (Species: RAT, Strain/Sex: F344/MALE, Route: GAVAGE, Dose: 0, 12.5, 25 MG/KG IN CORN OIL 5 D/WK FOR 104 WK (STUDY DURATION: 2 YR)): inactive; negative

Structure (SMILES): C#CC(C)(C)NC(=O)c1cc(Cl)cc(Cl)c1
- carcinogen call (Species: MOUSE, Strain/Sex: B6C3F1/MALE, Route: ORAL, Dose: 0, 20, 100, 500, 2500 PPM IN DIET FOR 12, 18 OR 24 MO (STUDY DURATION: 24 MO), Dose: 0, 20, 100, 500, 2500 PPM IN DIET FOR 12, 18 OR 24 MO (STUDY DURATION: 24 MO), Tumor Site: Type of Lesion: LIVER: HEPATOCELLULAR CARCINOMA OR ADENOMA): active; positive

Structure (SMILES): CN=NCc1ccc(C(=O)NC(C)C)cc1
- carcinogen call (Species: MOUSE, Strain/Sex: CDF1/MALE, Route: GAVAGE, Dose: 0, 300 MG/KG IN 0.01 ML OF 0.5% AQUEOUS SOLUTION OF SODIUM CARBOXYMETHYL CELLULOSE 1/WK FOR 4 WK THEN 0, 400 MG/KG 1/WK, Dose: 0, 300 MG/KG IN 0.01 ML OF 0.5% AQUEOUS SOLUTION OF SODIUM CARBOXYMETHYL CELLULOSE 1/WK FOR 4 WK THEN 0, 400 MG/KG 1/WK, Tumor Site: Type of Lesion: PULMONARY SYSTEM: TUMOR, KIDNEY: CYSTADENOMA): active; positive

Structure (SMILES): Nc1ncc([N+](=O)[O-])s1
- carcinogen call (Species: MOUSE, Strain/Sex: B6C3F1/FEMALE, Route: ORAL, Dose: 0, 50, 100 PPM IN DIET, Dose: 0, 50, 100 PPM IN DIET): inactive; negative
- carcinogen call (Species: MOUSE, Strain/Sex: B6C3F1/MALE, Route: ORAL, Dose: 0, 50, 100 PPM IN DIET, Dose: 0, 50, 100 PPM IN DIET): inactive; negative
- carcinogen call (Species: RAT, Strain/Sex: F344/FEMALE, Route: ORAL, Dose: 0, 300, 600 PPM IN DIET, Dose: 0, 300, 600 PPM IN DIET): inactive; negative
